US20240300934A1, “COMPOUNDS FOR MODULATING MYCOBACTERIUM TUBERCULOSIS RESPONSE” (priority 2021, published 2024)
In brackets after ≈: the same amount, converted by molar mass. Where two headings read alike, the source gives them in different places.

Experiments:
[1] = tested on: rv2390c′::GFP reporter Mtb strain; format: cell-based, Mycobacterium tuberculosis; settings: for rv2390c′::GFP Cl− response phenotype: compared to C6
[2] = tested on: murine bone marrow derived macrophages phagosome; assay: Phagosomal maturation assays with sensor beads; format: cell-based, mouse; settings: 10 μM
Protocol: Carboxyfluorescein (pH readout), DQ-BSA/Alexa Fluor 594 (AF594) (proteolysis readout), and 10,10′-Bis[3-carboxylpropyl]-9,9′-biacridinium (BAC)/AF594 (Cl^− readout) beads were generated as previously described (Podinovskaia et al, 2013; Tan et al, 2013; Tan et al, 2017; Yates et al, 2008). Bone marrow-derived macrophages were isolated from C57BL/6J mice (Jackson Laboratories) and maintained as described above. 2×10^5 macrophages/well were seeded into 96-well clear bottom black plates, and utilized in assays one-two days post-seeding. […] Assay buffer consisted of PBS, pH 7.2, supplemented with 5% FBS, 5 mM dextrose, 1 mM CaCl2, 2.7 mM KCl, and 0.5 mM MgCl2 in the case of assays with the carboxyfluorescein or DQ-BSA/AF594 beads (Buter et al, 2019; Dutta et al, 2020). For assays with the BAC/AF594 beads, assay buffer consisted of PBS, pH 7.2, supplemented with 5% FBS, 5 mM dextrose, 1 mM calcium acetate, 1.35 mM K2SO4, and 0.5 mM MgSO4 (Tan et al, 2013). Sensor beads at ˜2-5 beads/macrophage in appropriate assay buffer were finally added, with data acquisition on a Biotek Synergy H1 microplate reader with bottom read signal detection started within 2-3 minutes of bead addition. Excitation/emission wavelengths were 450 nm/520 nm and 490 nm/520 nm for carboxyfluorescein, 490 nm/520 nm for DQ-BSA, 365 nm/505 nm for BAC, and 590 nm/617 nm for AF594. Each experiment was run with a total of 3-5 replicate wells/condition, with temperature maintained at 37° C. throughout the assay. Wells were read every 2 minutes for 2 hours for the carboxyfluorescein bead assays, every 2 minutes for 4 hours for the DQ-BSA/AF594 bead assays, and every 1 minute for 2 hours for the BAC/AF594 bead assays. Analyses of the results were performed as previously described (Buter et al, 2019; Dutta et al, 2020; Podinovskaia et al, 2013; Tan et al, 2013).

Mtb [3] = assay: Mtb growth assay in cholesterol media (OD600); format: cell-based, Mycobacterium tuberculosis; settings: compared to C6
Mtb in J774 cells = assay: Mtb growth in J774 macrophage-like cells (mKO fluorescence); format: cell-based, Mycobacterium tuberculosis; settings: for Inhibition of Mtb growth in J774 cells phenotype: compared to C6; for % Reduction of Intracellular Infection (J774.1 cells) at 10 μM cmpd: 10 μM compound
Protocol: For the tertiary screen of selected hit compounds in J774 murine macrophage-like cells, 30,000 J774 cells/well were seeded in bar-coded 384-well black, clear bottom plates in a 30 μl volume in J774 infection media (DMEM+10% FBS+1 mM sodium pyruvate+2 mM L-glutamine) using a ThermoFisher Multidrop Combi reagent dispenser, one day prior to assay start. On the day of the assay, log-phase Mtb constitutively expressing mKO were pelleted and resuspended in 1 ml basal uptake buffer (0.5% bovine serum albumin+25 mM dextrose+0.5 mM MgCl2+1 mM CaCl2+0.1% gelatin in phosphate buffered saline (PBS), passed 6× though a tuberculin syringe with a 25 G×5/8″ needle, then resuspended in J774 infection media to a final OD600=0.2. 10 μl of this bacterial suspension was added to each well of the 384-well plates containing the J774 cells, followed by addition of 10 μl of the appropriate compounds (pre-aliquoted in v-bottom plates in a 1:1 mix of PBS:J774 infection media). Addition of Mtb and compounds were conducted using a Janus Ministation. For each test plate, two columns of controls (16 wells each) were included, with one column consisting of treatment with DMSO as a carrier control (negative control), and the other column consisting of treatment with 5 μM rifampicin (positive control). This tertiary assay was done as a dose-response assay in duplicate runs, with compounds tested beginning at a final concentration of 20 μM and two-fold dilutions down to 0.039 μM. Plates were kept in humidified ziplock bags in a 37° C., 5% CO2 incubator. 6 days post-infection, mKO fluorescence signal was read using a PerkinElmer EnVision multimode plate reader (bottom read filter, excitation 530/8 nm, Bodipy TMR D555 single mirror, emission 579/25 nm). mKO fluorescence in DMSO-treated control samples were defined as 100% growth, and fluorescence observed in treatment conditions calculated as a percentage from that set value.
For J774 infection in 96-well plates, 180,000 J774 cells were seeded per well in 180 μl of J774 infection media one day prior to infection. On the day of the assay, log-phase Mtb constitutively expressing mKO were pelleted and resuspended in 1 ml basal uptake buffer, passed 6× though a tuberculin syringe with a 25 G×5/8″ needle, then resuspended in J774 infection media to a final OD600=0.2. Media was removed from 96-well plate containing the J774 cells, with 140 μl of fresh J774 infection media added back to each well. 40 μl of the Mtb suspension at OD600=0.2 was added to each well, followed by addition of appropriate concentration of compound or DMSO in a 20 μl final volume in J774 infection media (compound final concentration 10 μM, rifampicin final concentration 5 μM, DMSO final concentration 0.1%/well). Bacterial mKO fluorescence was read immediately after infection using a Biotek Synergy Neo2 microplate reader (bottom read monochromator, excitation 543/10 nm, emission 565/10 nm), and again 6 days post-infection. Plates were kept in humidified ziplock bags in a 37° C., 5% CO2 incubator. mKO fluorescence in DMSO-treated control samples were defined as 100% growth, and fluorescence observed in treatment conditions calculated as a percentage from that set value.

[4] = Mouse pharmacokinetics, single oral dose; format: in vivo, CD-1 mice; settings: for Kp at 5 h / AUC(0-t): female, single 25 mg/kg po dose; for Kp at 5 h: CD-1, mouse, lung vs plasma, read-out: Mouse PK Clung/Cplasma at t = 5 h; for AUC(0-t): mouse, CD-1 mice, read-out: Mouse PK AUC0-5h
Protocol: Blood samples were collected in K2EDTA coated tubes pre-dose, 0.5, 1, 3 and 5 hrs post-dose, placed on ice, and centrifuged to recover plasma. The recovered plasma was kept at −80° C. as needed prior to analysis, which was performed as previously described (Wang et al, 2020). In brief, a Sciex Applied Biosystems Qtrap 4000 triple-quadrupole mass spectrometer coupled to an Agilent 1260 HPLC system was used for HPLC coupled to tandem mass spectrometry (LC-MS/MS) quantitative analysis of the samples, with chromatography attained using an Agilent Zorbax SB-C8 column (2.1×30 mm; particle size, 3.5 μm) and a reverse phase gradient elution. The aqueous mobile phase consisted of Milli-Q deionized water with 0.1% formic acid (A), while the organic mobile phase was 0.1% formic acid in acetonitrile (B). The gradient set-up was as follows: 5-90% B over 2 mins, 1 min at 90% B, then an immediate drop to 5% B and an additional 1 min at 5% B. Quantification of molecules was carried out via multiple-reaction monitoring of parent/daughter transitions in electrospray positive-ionization mode, and sample analyses accepted if quality control and standard samples had concentrations within 20% of the nominal concentration. Preparation of compounds for generation of standard curves and quality control spiking solutions were performed as previously described (Wang et al, 2020). Data were processed using Analyst software (Version 1.6.2; Applied Biosystems Sciex).

[5] = Mouse liver microsomal stability; format: in vitro ADME; settings: mouse liver microsomes; for half-life: read-out: MLM t1/2
Protocol: (§1) Assays examining mouse and human liver microsomal stability, kinetic aqueous solubility, mouse and human plasma protein binding and stability, and human cytochrome P450 inhibition characteristics of the compounds were run by BioDuro, Incorporated, using standard protocols as previously described (Wang et al, 2020). hERG inhibition assays were also performed by BioDuro, Incorporated.

[6] = Kinetic aqueous solubility in pH 7.4 PBS; format: physicochemical; settings: read-out: Kinetic Aqueous Solubility S
Protocol: as §1

Mtb [7] = assay: C3HeB/FeJ murine Mtb infection model; format: in vivo, C3HeB/FeJ mice; settings: 150 mg/kg, 5 days/week oral gavage for 2 weeks, started 2 or 6 weeks post-infection
Protocol: C3HeB/FeJ wild type mice (Jackson Laboratories) were infected intranasally with 10^3 CFUs of Mtb (35 μl), under light anesthesia with 2% isoflurane (MacGilvary et al, 2019; Sukumar et al, 2014; Tan et al, 2013). […] The next day the suspension was homogenized by bead beating with 5 mm steel beads in a TOMY microtube mixer (2×20 s), and stored at 4° C. until use. […] Administration began at two or six weeks post-infection as indicated. At time of sacrifice, the left lobe and accessory right lobe of the lung were homogenized in PBS+0.05% Tween 80 and serial dilutions plated on 7H10 agar plates with 100 μg/ml cycloheximide for bacterial load determination. The remaining three right lobes were fixed in 4% PFA in PBS. One lobe was used for histological analysis by standard hematoxylin and eosin (H&E) staining (Tufts Comparative Pathology Services). A Nikon Eclipse E400 with a SPOT insight color digital camera was used to image the histology samples.

[8] = tested on: Mtb in bone marrow-derived macrophages (BMDMs); assay: Mtb growth in primary murine bone marrow-derived macrophages (CFU); format: cell-based, Mycobacterium tuberculosis; settings: 10 μM; added 2 hrs post-infection; eight-day time-course
Protocol: C57BL/6J wild type mice (Jackson Laboratories) were used for extraction of bone marrow-derived macrophages. Cells were harvested and expanded in DMEM containing 10% FBS, 15% L-cell conditioned media, 2 mM L-glutamine, 1 mM sodium pyruvate, and penicillin/streptomycin as needed in a 37° C. incubator in a 5% CO2 atmosphere. […] Macrophages were lysed with water containing 0.01% sodium dodecyl sulfate and a dilution series of the samples plated on 7H10 agar for CFU determination.

[9] = PBS, pH 7.4, aqueous buffer, kinetic from dmso stock, Table 2

CCSc1ncc(CN2CCN(c3nc4ccccc4[nH]3)CC2)cn1 [JSF-4299, 2-(4-((2-(ethylthio)pyrimidin-5-yl)methyl)piperazin-1-yl)-1H-benzo[d]imidazole]
rv2390c′::GFP Cl− response phenotype [1]: Y | macrophage phagosomal proteolytic activity ([2]; DQ-BSA/AF594 beads): decrease in the extent of proteolysis | macrophage phagosomal acidification ([2]; carboxyfluorescein beads): delay in acidification | Growth inhibition in cholesterol media phenotype (Mtb [3]): Y | Inhibition of Mtb growth in J774 cells phenotype (Mtb in J774 cells): Y

CCSc1ncc(CN2CCN(c3nc4ccc(C)cc4o3)CC2)cn1 [JSF-4527, 2-(4-((2-(ethylthio)pyrimidin-5-yl)methyl)piperazin-1-yl)-6-methylbenzo[d]oxazole]
rv2390c′::GFP Cl− response phenotype [1]: Y | Kp at 5 h [4]: 0.55 | AUC(0-t) ([4]; plasma): 16300 ng·h/mL | half-life [5]: 38.7 min | % Reduction of Intracellular Infection (J774.1 cells) at 10 μM cmpd (Mtb in J774 cells): 53.8 ± 2.1% | Inhibition of Mtb growth in J774 cells phenotype (Mtb in J774 cells): Y | solubility kinetic [6, 9]: 13.7 µM (≈ 5.06 µg/mL)

CCSc1ncc(CN2CCN(c3nc4ccc(C#N)cc4o3)CC2)cn1 [JSF-4538, 2-(4-((2-(ethylthio)pyrimidin-5-yl)methyl)piperazin-1-yl)benzo[d]oxazole-6-carbonitrile]
Mtb growth in vivo (lung CFUs) (Mtb [7]): inhibits Mtb growth in vivo | rv2390c′::GFP Cl− response phenotype [1]: Y | Kp at 5 h [4]: 0.3 | AUC(0-t) ([4]; plasma): 98700 ng·h/mL | half-life [5]: 25.5 min | % Reduction of Intracellular Infection (J774.1 cells) at 10 μM cmpd (Mtb in J774 cells): 36.4 ± 2.6%

CCSc1ncc(CN2CCN(c3nc4cc(C(F)(F)F)ccc4o3)CC2)cn1 [JSF-4526, 2-(4-((2-(ethylthio)pyrimidin-5-yl)methyl)piperazin-1-yl)-5-(trifluoromethyl)benzo[d]oxazole]
rv2390c′::GFP Cl− response phenotype [1]: Y | Kp at 5 h [4]: 0.44 | AUC(0-t) ([4]; plasma): 27500 ng·h/mL | half-life [5]: 32 min | % Reduction of Intracellular Infection (J774.1 cells) at 10 μM cmpd (Mtb in J774 cells): 52.4 ± 1.4% | Inhibition of Mtb growth in J774 cells phenotype (Mtb in J774 cells): Y | solubility kinetic [6, 9]: 38.6 µM (≈ 16.3 µg/mL)

O=C(c1cnc2ccccn12)N1CCCC(CCc2cccc(C(F)(F)F)c2)C1 (stereo not shown) [Compound C5, Imidazo[1,2-a]pyridin-3-yl(3-(3-(trifluoromethyl)phenethyl)piperidin-1-yl)methanone]
rv2390c′::GFP reporter signal upon Mtb exposure to high [Cl−] (in words) ([1]; 10 μM, 250 mM NaCl): increased rv2390c′::GFP reporter signal | rv2390c′::GFP response phenotype ([1]; screen hits, high chloride (250 mM NaCl, pH 6.4)): Increases induction in high | AUC0-5 h ([4]; single 5 mg/kg oral (po) dose, plasma, CD-1 mice (n=2)): 42 ng·h/mL | Mtb bacterial load / growth in primary murine BMDM (in words) [8]: significant decrease in bacterial load | MLM t1/2 [5]: 4.98 min | Mtb growth in J774 cells (in words) (Mtb in J774 cells; 10 μM, 6 days post-infection): Mtb growth inhibition | inhibition at 10 µM (Mtb in J774 cells; Mycobacterium tuberculosis, J774CELLS, J774, 144 h, read-out: % inhibition compared to Rif in J774 at 10 μM): 50.9 ± 3.2% | inhibition at 20 µM (Mtb in J774 cells; Mycobacterium tuberculosis, J774CELLS, J774, 144 h, read-out: % inhibition compared to Rif in J774 at 20 μM): 55% | solubility kinetic ([6]; pH 7.4 phosphate buffered saline (PBS)): 6.67 µM (≈ 2.68 µg/mL)
